For one compound, IC50 and DC50 results are on record in article PMC11444201, “A Novel Tetrahydroacridine Derivative with Potent Acetylcholinesterase Inhibitory Properties and Dissociative Capability against Aβ42 Fibrils Confirmed by In Vitro Studies” (International Journal of Molecular Sciences, 2024).

Experiment [1] addresses acetylcholinesterase (AChE) (Electrophorus electricus, UniProt O42275). The experiment can be described thus: modified Ellman spectrophotometric assay with isolated enzyme. The class given is biochemical.
The target of experiment [2] is T1, amyloid β 1-42 (Aβ42) fibrils (Homo sapiens, UniProt P05067).
T1 construct: gene APP; amyloid β 1-42 peptide, preformed fibrils
The experiment can be described thus: thioflavin T fluorescence fibril dissociation assay (DC50), supported by AFM. The class given is biochemical.

Molecules are shown by their SMILES. Where a name gives a salt, the structure may show the parent alone.

Chain of acetylcholinesterase (AChE) (O42275 24-633): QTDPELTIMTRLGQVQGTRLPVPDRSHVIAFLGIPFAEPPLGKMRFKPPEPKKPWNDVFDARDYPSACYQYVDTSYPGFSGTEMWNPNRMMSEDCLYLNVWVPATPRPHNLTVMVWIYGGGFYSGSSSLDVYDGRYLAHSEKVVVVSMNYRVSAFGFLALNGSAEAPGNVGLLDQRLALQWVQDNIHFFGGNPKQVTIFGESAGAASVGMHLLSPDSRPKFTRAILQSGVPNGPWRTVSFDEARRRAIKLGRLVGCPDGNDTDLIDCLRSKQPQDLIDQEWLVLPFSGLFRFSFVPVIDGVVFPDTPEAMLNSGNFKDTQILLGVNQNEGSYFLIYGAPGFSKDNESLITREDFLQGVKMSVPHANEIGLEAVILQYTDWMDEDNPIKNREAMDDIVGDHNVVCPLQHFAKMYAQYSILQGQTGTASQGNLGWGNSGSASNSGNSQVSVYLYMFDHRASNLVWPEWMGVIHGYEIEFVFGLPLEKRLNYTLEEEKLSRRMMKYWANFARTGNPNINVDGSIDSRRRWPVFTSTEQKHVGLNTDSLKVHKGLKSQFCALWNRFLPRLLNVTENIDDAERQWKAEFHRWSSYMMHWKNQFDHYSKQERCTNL
T1 sequence (P05067 672-713): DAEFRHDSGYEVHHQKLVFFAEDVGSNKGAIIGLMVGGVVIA

For the compound `Clc1cc2c3c(c4c(nc3c1)CCCC4)NCCN2` [CHDA, 6-chloro-1,2,3,4,9,10,11,12-octahydro-[1,4]-diazepine-[5,6,7-kl]-acridine Monohydrochloride], inhibition in experiment [1] was half-maximal at 18.5 ± 5.68 nM (IC50). In experiment [2], this compound gave a DC50 of 70800 nM.
